Like-named read-outs stand apart in the source and are kept apart here.
Test system: Direct Seeded Rice and weed species
Test: Postemergence herbicidal activity in direct seeded rice, visual rating after 20-22 days and probit GR20/GR50/GR80/GR90 (Table 14)
Format: in vivo
Conditions: for pest or weed control at 17.5 g/ha / pest or weed control at 35 g/ha / pest or weed control at 70 g/ha: post-emergence, 504 h, postemergence; for pest or weed control at 17.5 g/ha: 17.5 g ai/ha; for pest or weed control at 35 g/ha: 35 g ai/ha; for pest or weed control at 70 g/ha: 70 g ai/ha
Text: Herbicidal evaluations were made visually on a scale of 0 to 100 where 0 represents no activity and 100 represents complete plant death. Seeds or nutlets of the desired test plant species were planted in a soil matrix prepared by mixing a loam soil (43 percent silt, 19 percent clay, and 38 percent sand, with a pH of about 8.1 and an organic matter content of about 1.5 percent) and river sand in an 80 to 20 ratio. The soil matrix was contained in plastic pots with a surface area of 139.7 cm^2. When required to ensure good germination and healthy plants, a fungicide treatment and/or other chemical or physical treatment was applied. The plants were grown for 10-17 d in a greenhouse with an approximate 14-h photoperiod which was maintained at about 29° C. during the day and 26° C. during the night. Nutrients and water were added on a regular basis and supplemental lighting was provided with overhead metal halide 1000-Watt lamps as necessary. The plants were employed for testing when they reached the second or third true leaf stage. A weighed amount, determined by the highest rate to be tested, of each test compound was placed in 25 mL glass vials and dissolved in a volume of 97:3 v/v acetone-DMSO to obtain 12× stock solutions. […] The concentrated stock solutions were added to the spray solutions so that the final acetone and DMSO concentrations were 16.2% and 0.5%, respectively. Spray solutions were diluted to the appropriate final concentrations with the addition of 10 mL of an aqueous mixture of 1.5% (v/v) Agri-dex crop oil concentrate. The final spray solutions contained 1.25% (v/v) Agri-dex crop oil concentrate. Compound requirements are based upon a 12 mL application volume at a rate of 187 L/ha. Formulated compounds were applied to the plant material with an overhead Mandel track sprayer equipped with […] nozzles calibrated to deliver 187 L/ha over an application area of 0.503 square meters (m^2) at a spray height of 18 inches (43 cm) above average plant canopy height. Control plants were sprayed in the same manner with the solvent blank. The treated plants and control plants were placed in a greenhouse as described above and watered by sub-irrigation to prevent wash-off of the test compounds. After 20-22 days, the condition of the test plants, compared with that of the untreated plants, was determined visually and scored on a scale of 0 to 100 percent where 0 corresponds to no injury and 100 corresponds to complete kill and are presented as indicated in Table 4. By applying the well-accepted probit analysis as described by J. Berkson in Journal of the American Statistical Society, 48, 565 (1953) and by D. Finney in “Probit Analysis” Cambridge University Press (1952), herbicidal injury of a specific compound at various rates can be used to calculate GR20, GR50, GR80 and GR90 values, which are defined as growth reduction factors that correspond to the effective dose of herbicide required to provide plant growth reduction (GR) of 20 percent, 50 percent, 80 percent and 90 percent, respectively. Probit analysis was applied to data collected from multiple dose rates of individual compounds utilizing the procedures explained in the following examples. The data for some of the dose rates and analysis of all of the dose rates are captured in the following tables.

[1] = BRAPP (broadleaf signalgrass, Brachiaria platyphylla), read-out: Visual Growth Reduction (%) 21 Days After Application BRAPP
[2] = CYPDI (small-flower flatsedge, Cyperus difformis), read-out: Visual Growth Reduction (%) 21 Days After Application CYPDI
[3] = CYPES (yellow nutsedge, Cyperus esculentus), read-out: Visual Growth Reduction (%) 21 Days After Application CYPES
[4] = CYPIR (rice flatsedge, Cyperus iria), read-out: Visual Growth Reduction (%) 21 Days After Application CYPIR
[5] = DIGSA (large crabgrass, Digitaria sanguinalis), read-out: Visual Growth Reduction (%) 21 Days After Application DIGSA
[6] = ECHCG (barnyardgrass, Echinochloa crus-galli), read-out: Visual Growth Reduction (%) 21 Days After Application ECHCG
[7] = ECHCO (junglerice, Echinochloa colonum), read-out: Visual Growth Reduction (%) 21 Days After Application ECHCO
[8] = LEFCH (Chinese sprangletop, Leptochloa chinensis), read-out: Visual Growth Reduction (%) 21 Days After Application LEFCH
[9] = ORYSJ (Oryza sativa, rice crop), read-out: Visual Growth Reduction (%) 21 Days After Application ORYSJ
[10] = ORYSK (Oryza sativa, rice crop), read-out: Visual Growth Reduction (%) 21 Days After Application ORYSK
[11] = SCPJU (Japanese bulrush, Schoenoplectus juncoides Roxb.), read-out: Visual Growth Reduction (%) 21 Days After Application SCPJU
[12] = SEBEX (hemp sesbania, Sesbania exaltata), read-out: Visual Growth Reduction (%) 21 Days After Application SEBEX

## Nc1cc(-c2ccc3c(c2F)OC(F)(F)O3)nc(C(=O)O)c1Cl [Compound 41]
BRAPP (Brachiaria platyphylla), probit analysis, dose for 50 percent growth reduction
  GR50 BRAPP: 0.3 g ai/ha
BRAPP (Brachiaria platyphylla), probit analysis, dose for 80 percent growth reduction
  GR80 BRAPP: 2 g ai/ha
BRAPP (Brachiaria platyphylla), probit analysis, dose for 90 percent growth reduction
  GR90 BRAPP: 6 g ai/ha
CYPDI (Cyperus difformis), probit analysis, dose for 50 percent growth reduction
  GR50 CYPDI: 4 g ai/ha
CYPDI (Cyperus difformis), probit analysis, dose for 80 percent growth reduction
  GR80 CYPDI: 6 g ai/ha
CYPDI (Cyperus difformis), probit analysis, dose for 90 percent growth reduction
  GR90 CYPDI: 7 g ai/ha
CYPES (Cyperus esculentus), probit analysis, dose for 50 percent growth reduction
  GR50 CYPES: 0.0001 g ai/ha
CYPES (Cyperus esculentus), probit analysis, dose for 80 percent growth reduction
  GR80 CYPES: 0.0001 g ai/ha
CYPES (Cyperus esculentus), probit analysis, dose for 90 percent growth reduction
  GR90 CYPES: 0.0001 g ai/ha
CYPIR (Cyperus iria), probit analysis, dose for 50 percent growth reduction
  GR50 CYPIR: 0.0001 g ai/ha
CYPIR (Cyperus iria), probit analysis, dose for 80 percent growth reduction
  GR80 CYPIR: 0.0001 g ai/ha
CYPIR (Cyperus iria), probit analysis, dose for 90 percent growth reduction
  GR90 CYPIR: 0.0001 g ai/ha
DIGSA (Digitaria sanguinalis), probit analysis, dose for 50 percent growth reduction
  GR50 DIGSA: 0.001 g ai/ha
DIGSA (Digitaria sanguinalis), probit analysis, dose for 80 percent growth reduction
  GR80 DIGSA: 0.131 g ai/ha
DIGSA (Digitaria sanguinalis), probit analysis, dose for 90 percent growth reduction
  GR90 DIGSA: 2 g ai/ha
ECHCG (Echinochloa crus-galli), probit analysis, dose for 50 percent growth reduction
  GR50 ECHCG: 0.0018 g ai/ha
ECHCG (Echinochloa crus-galli), probit analysis, dose for 80 percent growth reduction
  GR80 ECHCG: 0.0018 g ai/ha
ECHCG (Echinochloa crus-galli), probit analysis, dose for 90 percent growth reduction
  GR90 ECHCG: 0.0018 g ai/ha
ECHCO (Echinochloa colonum), probit analysis, dose for 50 percent growth reduction
  GR50 ECHCO: 0.0003 g ai/ha
ECHCO (Echinochloa colonum), probit analysis, dose for 80 percent growth reduction
  GR80 ECHCO: 0.0415 g ai/ha
ECHCO (Echinochloa colonum), probit analysis, dose for 90 percent growth reduction
  GR90 ECHCO: 1 g ai/ha
LEFCH (Leptochloa chinensis), probit analysis, dose for 50 percent growth reduction
  GR50 LEFCH: 6 g ai/ha
LEFCH (Leptochloa chinensis), probit analysis, dose for 80 percent growth reduction
  GR80 LEFCH: 13 g ai/ha
LEFCH (Leptochloa chinensis), probit analysis, dose for 90 percent growth reduction
  GR90 LEFCH: 20 g ai/ha
ORYSJ (Oryza sativa, rice crop), probit analysis, dose for 20 percent growth reduction
  GR20 ORYSJ: 1 g ai/ha
ORYSK (Oryza sativa, rice crop), probit analysis, dose for 20 percent growth reduction
  GR20 ORYSK: 2 g ai/ha
SCPJU (Schoenoplectus juncoides Roxb.), probit analysis, dose for 50 percent growth reduction
  GR50 SCPJU: 0.0001 g ai/ha
SCPJU (Schoenoplectus juncoides Roxb.), probit analysis, dose for 80 percent growth reduction
  GR80 SCPJU: 0.0001 g ai/ha
SCPJU (Schoenoplectus juncoides Roxb.), probit analysis, dose for 90 percent growth reduction
  GR90 SCPJU: 0.0001 g ai/ha
SEBEX (Sesbania exaltata), probit analysis, dose for 50 percent growth reduction
  GR50 SEBEX: 4 g ai/ha
SEBEX (Sesbania exaltata), probit analysis, dose for 80 percent growth reduction
  GR80 SEBEX: 9 g ai/ha
SEBEX (Sesbania exaltata), probit analysis, dose for 90 percent growth reduction
  GR90 SEBEX: 13 g ai/ha
[1]
  pest or weed control at 17.5 g/ha: 95 to 100%
  pest or weed control at 35 g/ha: 95 to 100%
  pest or weed control at 70 g/ha: 95 to 100%
[2]
  pest or weed control at 17.5 g/ha: 95 to 100%
  pest or weed control at 35 g/ha: 95 to 100%
  pest or weed control at 70 g/ha: 95 to 100%
[3]
  pest or weed control at 17.5 g/ha: 95 to 100%
  pest or weed control at 35 g/ha: 95 to 100%
  pest or weed control at 70 g/ha: 95 to 100%
[4]
  pest or weed control at 17.5 g/ha: 95 to 100%
  pest or weed control at 35 g/ha: 95 to 100%
  pest or weed control at 70 g/ha: 95 to 100%
[5]
  pest or weed control at 17.5 g/ha: 95 to 100%
  pest or weed control at 35 g/ha: 95 to 100%
  pest or weed control at 70 g/ha: 95 to 100%
[6]
  pest or weed control at 17.5 g/ha: 85 to 94%
  pest or weed control at 35 g/ha: 95 to 100%
  pest or weed control at 70 g/ha: 95 to 100%
[7]
  pest or weed control at 17.5 g/ha: 95 to 100%
  pest or weed control at 35 g/ha: 95 to 100%
  pest or weed control at 70 g/ha: 95 to 100%
[8]
  pest or weed control at 17.5 g/ha: 85 to 94%
  pest or weed control at 35 g/ha: 95 to 100%
  pest or weed control at 70 g/ha: 95 to 100%
[9]
  pest or weed control at 17.5 g/ha: 85 to 94%
  pest or weed control at 35 g/ha: 95 to 100%
  pest or weed control at 70 g/ha: 95 to 100%
[10]
  pest or weed control at 17.5 g/ha: 60 to 74%
  pest or weed control at 35 g/ha: 75 to 84%
  pest or weed control at 70 g/ha: 85 to 94%
[11]
  pest or weed control at 17.5 g/ha: 95 to 100%
  pest or weed control at 35 g/ha: 95 to 100%
  pest or weed control at 70 g/ha: 95 to 100%
[12]
  pest or weed control at 17.5 g/ha: 95 to 100%
  pest or weed control at 35 g/ha: 95 to 100%
  pest or weed control at 70 g/ha: 95 to 100%

— US9149038B2, “4-amino-6-(heterocyclic)picolinates and 6-amino-2-(heterocyclic)pyrimidine-4-carboxylates and their use as herbicides” (Dow AgroSciences LLC, priority 2013, dated 2015)
